Read-outs that look alike come from different tables or passages of the source.
Experiments:
[1] = target: T1, 5-HT2 receptor (Rattus norvegicus, UniProt P14842); assay: 5-HT2 functional assay: phosphoinositide (PI) turnover; format: cell-based; settings: for Emax: A7r5 cells, relative to 5-HT set at 100%, read-out: Efficacy (Emax, %) 5-HT2 functional
T1 construct: A7r5 rat vascular smooth muscle cells; endogenous in cells; host or cells: A7r5 rat vascular smooth muscle cells
Protocol: 5-HT2 Functional Assay: Phosphoinositide (PI) Turnover Assay
The relative agonist activity of serotonergic compounds at the 5-HT2 receptor can be determined in vitro using the ability of the compounds to stimulate the production of [^3H]inositol phosphates in [^3H]myo-inositol-labeled A7r5 rat vascular smooth muscle cells by their ability to activate the enzyme phospholipase C. These cells are grown in culture plates, maintained in a humidified atmosphere of 5% CO2 and 95% air and fed semi-weekly with Dulbecco's modified Eagle medium (DMEM) containing 4.5 g/l glucose and supplemented with 2 mM glutamine, 10 μg/ml gentamicin, and 10% fetal bovine serum. For the purpose of conducting the phosphoinositide (PI) turnover experiments, the A7r5 cells are cultured in 24-well plates as previously [J. Pharmacol. Expt. Ther., 286, 411 (1998)]. Confluent cells are exposed for 24-30 hrs to 1.5 μCi [^3H]-myo-inositol (18.3 Ci/mmol) in 0.5 ml of serum-free medium. Cells are then rinsed once with DMEM/F-12 containing 10 mM LiCl prior to incubation with the test agent (or solvent as the control) in 1.0 ml of the same medium for 1 hr at 37° C., after which the medium is aspirated and 1 ml of cold 0.1 M formic acid added to stop the reaction. The chromatographic separation of [^3H]-inositol phosphates ([^3H]-IPs) on an AG-1-X8 column is performed as previously described [J. Pharmacol. Expt. Ther. 286, 411 (1998)] with sequential washes with H2O and 50 mM ammonium formate, followed by elution of the total [^3H]-IPs fraction with 1.2 M ammonium formate containing 0.1 M formic acid. The eluate (4 ml) is collected, mixed with 15 ml scintillation fluid, and the total [^3H]-IPs determined by scintillation counting on a beta counter. Concentration-response data are analyzed by the sigmoidal fit function of the Origin Scientific Graphics software (Microcal Software, Northampton, Mass.) to determine agonist potency (EC50 value) and efficacy (Emax). Serotonin (5-HT) is used as a positive control (standard) agonist compound and the efficacy of test compounds is compared to that of 5-HT (set at 100%). The concentration of the compound needed to stimulate the production of [^3H]-IPs by 50% of the maximum response is termed the EC50 value.

[2] = system: photooxidative induced retinopathy; assay: Neuroprotective effects in the rat photooxidative induced retinopathy model (ERG); format: in vivo, Sprague Dawley rat; settings: for A-wave Amplitude Mean / B-wave Amplitude Mean: ERG after five day recovery
Protocol: Neuroprotective Effects in the Rat Photooxidative Induced Retinopathy Model
Male Sprague Dawley rats were randomly assigned to vehicle treatment (saline) or drug treatment (dissolved in saline) experimental groups. α-methyl-5-hydroxytryptamine (1, 5, and 10 mg/kg) or vehicle was administered by subcutaneous (SC) injection at 48, 24, and 0 hours prior to light exposure and once 24 hours after a 6-hour light exposure to spectrally filtered blue light (˜220 fc). Control rats were housed in their home cage under normal cyclic light exposure. Rats were single housed in clear polycarbonate cages during this light exposure.
The electroretinogram (ERG) was recorded after a five day recovery period from dark-adapted anesthetized rats (Ketamine-HCl, 75 mg/Kg; Xylazine, 6 mg/Kg). The eye's electrical response to a flash of light was elicited by viewing a ganzfeld. ERGs to a series of light flashes increasing in intensity were digitized to analyze temporal characteristics of the waveform and determine the response voltage-log intensity (VlogI) relationship. Changes in the ERG a-wave are associated with photoreceptor and retinal pigment epithelium damage while damage to the inner retina is reflected in changes in the ERG b-wave.

T1 sequence (P14842 whole entry): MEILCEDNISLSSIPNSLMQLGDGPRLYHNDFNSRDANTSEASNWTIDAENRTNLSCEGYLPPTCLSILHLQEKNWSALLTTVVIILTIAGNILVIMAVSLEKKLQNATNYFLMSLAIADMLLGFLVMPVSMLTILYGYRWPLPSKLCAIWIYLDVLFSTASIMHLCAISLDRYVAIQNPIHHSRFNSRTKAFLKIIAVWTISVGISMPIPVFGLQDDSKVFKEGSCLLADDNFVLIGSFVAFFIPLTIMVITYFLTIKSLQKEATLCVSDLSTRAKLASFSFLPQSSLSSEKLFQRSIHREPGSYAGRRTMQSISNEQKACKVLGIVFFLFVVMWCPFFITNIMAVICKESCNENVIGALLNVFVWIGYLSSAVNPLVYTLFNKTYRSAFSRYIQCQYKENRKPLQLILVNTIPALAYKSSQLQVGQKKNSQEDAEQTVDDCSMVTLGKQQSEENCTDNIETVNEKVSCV

| Structure (SMILES) | EC50 [1] [nM] | Emax [1] [%] | EC50 ([1]; [3H]inositol phosphates, A7r5 rat vascular smooth muscle cells, read-out: EC50, nM (SEM) 5-HT2 functional) [nM] | Maximum a- and b-wave response amplitudes compared with vehicle dosed rats ([2]; 1.0 mg/kg) | Maximum a- and b-wave response amplitudes, % of control animals ([2]; 1.0 mg/kg) | A-wave Amplitude Mean ([2]; 1.0 mg/kg SC) [μV] | B-wave Amplitude Mean ([2]; 1.0 mg/kg SC) [μV] | A-wave Amplitude Mean ([2]; 5.0 mg/kg SC) [μV] | B-wave Amplitude Mean ([2]; 5.0 mg/kg SC) [μV] | A-wave Amplitude Mean ([2]; 10.0 mg/kg SC) [μV] | B-wave Amplitude Mean ([2]; 10.0 mg/kg SC) [μV] | Protection of retina function against photo-oxidative induced retinopathy ([2]; 1, 5 and 10 mg/kg SC) | Maximum a- and b-wave response amplitudes compared with vehicle dosed rats ([2]; 5 and 10 mg/kg) | Maximum a-wave response amplitude, % of control animals ([2]; 5 and 10 mg/kg, first of 'respectively' values) | Maximum b-wave response amplitude, % of control animals ([2]; 5 and 10 mg/kg, second of 'respectively' values) [%] |
| --- | --- | --- | --- | --- | --- | --- | --- | --- | --- | --- | --- | --- | --- | --- | --- |
| COc1ccc2[nH]cc(CC(C)N)c2c1.O=C(O)/C=C/C(=O)O (stereo not drawn) [α-Methyl 5-methoxytryptamine fumarate] | 206 | 81 |  |  |  |  |  |  |  |  |  |  |  |  |  |
| CC(N)Cn1ccc2ccc(O)cc21.O=C(O)/C=C/C(=O)O (centres unmarked) [1-(2-aminopropyl) 6-hydroxyindole fumarate] |  | 86 | 577 |  |  |  |  |  |  |  |  |  |  |  |  |
| CC(N)Cc1c[nH]c2ccc(O)cc12.O=C(O)/C=C\C(=O)O (stereo not drawn) [α-Methyl 5-hydroxytryptamine maleate, 3-(2-aminopropyl)-1H-indol-5-ol] |  | 104 |  | not significantly different than vehicle dosed rats | approximately 30% | 237.8 | 555 | 471.93 | 1123 | 477.7 | 1126 | dose-dependent protection of outer and inner retina function | significantly higher than responses measured in vehicle dosed rats | approximately 58% | ~62 |
